In the supplement of paper PMC10307832:

Key:
Assay in all cases: relative viability (nuclei count vs DMSO), 5 days (fraction); higher = more cells survive
[1] = system: 201T
Outline: (§1)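 The day after seeding in 1536-well plates, lung cancer cell lines were treated by pin tool with a single drug, or with a fixed anchor-drug dose together with five library-drug doses (not always all listed) in √10 steps. After 5 days, a combined fix-and-stain solution (final 0.05% Triton X-100, 1% formaldehyde, 1 ug/ml Hoechst) was added. Nuclei counted on 4× images gave relative viability as treated counts over vehicle counts, reported as the median of duplicate plates.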

[2] = system: COR-L23
Outline: as §1

[3] = system: H3255
Outline: as §1

[4] = system: HARA
Outline: as §1

[5] = system: LU99A
Outline: as §1

[6] = system: NCI-H1650
Outline: as §1

[7] = system: NCI-H1651
Outline: as §1

[8] = system: NCI-H1755
Outline: as §1

[9] = system: NCI-H1793
Outline: as §1

[10] = system: NCI-H2085
Outline: as §1

[11] = system: NCI-H2087
Outline: as §1

[12] = system: NCI-H23
Outline: as §1

[13] = system: NCI-H3122
Outline: as §1

[14] = system: NCI-H322M
Outline: as §1

[15] = system: NCI-H358
Outline: as §1

[16] = system: NCI-H460
Outline: as §1

[17] = system: NCI-H522
Outline: as §1

[18] = system: NCI-H596
Outline: as §1

[19] = system: NCI-H650
Outline: as §1

[20] = system: PC-3 [JPC-3]
Outline: as §1

[21] = system: SK-LU-1
Outline: as §1

Cc1cn(-c2cc(NC(=O)c3ccc(C)c(Nc4nccc(-c5cccnc5)n4)c3)cc(C(F)(F)F)c2)cn1 [Nilotinib] + CCNC(=O)c1noc(-c2cc(C(C)C)c(O)cc2O)c1-c1ccc(CN2CCOCC2)cc1 [Luminespib] (partner 0.01 µM)
relative viability ([1]; first compound 0.003162 µM): 1.13
relative viability ([1]; first compound 0.01 µM): 1.16
relative viability ([1]; first compound 0.03162 µM): 1.11
relative viability ([1]; first compound 0.1 µM): 1.03
relative viability ([2]; first compound 0.001 µM): 0.478
relative viability ([2]; first compound 0.003162 µM): 0.557
relative viability ([2]; first compound 0.01 µM): 0.883
relative viability ([2]; first compound 0.03162 µM): 0.507
relative viability ([2]; first compound 0.1 µM): 0.535
relative viability ([3]; first compound 0.001 µM): 0.9
relative viability ([3]; first compound 0.003162 µM): 0.733
relative viability ([3]; first compound 0.03162 µM): 0.922
relative viability ([3]; first compound 0.1 µM): 0.325
relative viability ([4]; first compound 0.001 µM): 0.569
relative viability ([4]; first compound 0.003162 µM): 1.24
relative viability ([4]; first compound 0.01 µM): 1.14
relative viability ([4]; first compound 0.03162 µM): 0.842
relative viability ([4]; first compound 0.1 µM): 0.482
relative viability ([5]; first compound 0.001 µM): 0.227
relative viability ([5]; first compound 0.01 µM): 0.274
relative viability ([5]; first compound 0.03162 µM): 0.219
relative viability ([5]; first compound 0.1 µM): 0.213
relative viability ([6]; first compound 0.001 µM): 0.208
relative viability ([6]; first compound 0.003162 µM): 0.203
relative viability ([6]; first compound 0.01 µM): 0.197
relative viability ([6]; first compound 0.03162 µM): 0.221
relative viability ([6]; first compound 0.1 µM): 0.192
relative viability ([7]; first compound 0.001 µM): 0.78
relative viability ([7]; first compound 0.003162 µM): 0.912
relative viability ([7]; first compound 0.01 µM): 0.902
relative viability ([7]; first compound 0.03162 µM): 0.711
relative viability ([7]; first compound 0.1 µM): 0.753
relative viability ([8]; first compound 0.001 µM): 0.651
relative viability ([8]; first compound 0.003162 µM): 0.418
relative viability ([8]; first compound 0.01 µM): 0.396
relative viability ([8]; first compound 0.03162 µM): 0.632
relative viability ([8]; first compound 0.1 µM): 0.376
relative viability ([9]; first compound 0.001 µM): 0.158
relative viability ([9]; first compound 0.003162 µM): 0.162
relative viability ([9]; first compound 0.01 µM): 0.195
relative viability ([9]; first compound 0.03162 µM): 0.168
relative viability ([9]; first compound 0.1 µM): 0.166
relative viability ([10]; first compound 0.001 µM): 0.392
relative viability ([10]; first compound 0.003162 µM): 0.46
relative viability ([10]; first compound 0.01 µM): 0.427
relative viability ([10]; first compound 0.03162 µM): 0.375
relative viability ([10]; first compound 0.1 µM): 0.382
relative viability ([11]; first compound 0.001 µM): 0.162
relative viability ([11]; first compound 0.003162 µM): 0.219
relative viability ([11]; first compound 0.01 µM): 0.202
relative viability ([11]; first compound 0.03162 µM): 0.172
relative viability ([11]; first compound 0.1 µM): 0.164
relative viability ([12]; first compound 0.001 µM): 0.204
relative viability ([12]; first compound 0.01 µM): 0.205
relative viability ([12]; first compound 0.03162 µM): 0.19
relative viability ([12]; first compound 0.1 µM): 0.195
relative viability ([13]; first compound 0.001 µM): 0.109
relative viability ([13]; first compound 0.003162 µM): 0.106
relative viability ([13]; first compound 0.01 µM): 0.0956
relative viability ([13]; first compound 0.03162 µM): 0.0805
relative viability ([13]; first compound 0.1 µM): 0.047
relative viability ([14]; first compound 0.001 µM): 1.08
relative viability ([14]; first compound 0.003162 µM): 0.481
relative viability ([14]; first compound 0.01 µM): 1.08
relative viability ([14]; first compound 0.03162 µM): 0.797
relative viability ([14]; first compound 0.1 µM): 1.02
relative viability ([15]; first compound 0.001 µM): 0.286
relative viability ([15]; first compound 0.003162 µM): 0.311
relative viability ([15]; first compound 0.01 µM): 0.43
relative viability ([15]; first compound 0.03162 µM): 0.188
relative viability ([16]; first compound 0.001 µM): 0.0351
relative viability ([16]; first compound 0.003162 µM): 0.0386
relative viability ([16]; first compound 0.01 µM): 0.0279
relative viability ([16]; first compound 0.03162 µM): 0.0273
relative viability ([16]; first compound 0.1 µM): 0.0271
relative viability ([17]; first compound 0.001 µM): 1.11
relative viability ([17]; first compound 0.003162 µM): 1.13
relative viability ([17]; first compound 0.01 µM): 1.35
relative viability ([17]; first compound 0.03162 µM): 1.07
relative viability ([17]; first compound 0.1 µM): 1.15
relative viability ([18]; first compound 0.001 µM): 1.16
relative viability ([18]; first compound 0.003162 µM): 1.05
relative viability ([18]; first compound 0.01 µM): 1.01
relative viability ([18]; first compound 0.03162 µM): 0.655
relative viability ([18]; first compound 0.1 µM): 0.833
relative viability ([19]; first compound 0.001 µM): 0.687
relative viability ([19]; first compound 0.003162 µM): 0.564
relative viability ([19]; first compound 0.01 µM): 0.792
relative viability ([19]; first compound 0.03162 µM): 0.742
relative viability ([19]; first compound 0.1 µM): 0.79
relative viability ([20]; first compound 0.001 µM): 0.548
relative viability ([20]; first compound 0.003162 µM): 0.627
relative viability ([20]; first compound 0.01 µM): 0.869
relative viability ([20]; first compound 0.03162 µM): 0.659
relative viability ([20]; first compound 0.1 µM): 0.526
relative viability ([21]; first compound 0.001 µM): 0.19
relative viability ([21]; first compound 0.003162 µM): 0.212
relative viability ([21]; first compound 0.03162 µM): 0.215
relative viability ([21]; first compound 0.1 µM): 0.217
